{"source": "paper PMC11309765", "about": "“Mechanism of the blood-brain barrier modulation by cadherin peptides” (Exploration of drug science, 2024)", "molecules": {"B1": {"name": "ADTC9 (peptide)", "peptide": "Ac-CDTPPYC-NH2", "modifications": "disulfide 1-7", "SMILES": "CC(=O)N[C@H]1CSSC[C@@H](C(N)=O)NC(=O)[C@H](Cc2ccc(O)cc2)NC(=O)[C@@H]2CCCN2C(=O)[C@@H]2CCCN2C(=O)[C@H]([C@@H](C)O)NC(=O)[C@H](CC(=O)O)NC1=O", "notes": "Cyclo(1,7)Ac-CDTPPYC-NH2; derivative of ADTC5 with Val6 replaced by Tyr6; source: synthetic peptide (Fmoc solid-phase synthesis, HPLC purified, cyclized by air oxidation)"}, "B2": {"name": "Ala-Asp-Thr Cyclic 5 (ADTC5) (peptide)", "peptide": "Ac-CDTPPVC-NH2", "modifications": "disulfide 1-7", "SMILES": "CC(=O)N[C@H]1CSSC[C@@H](C(N)=O)NC(=O)[C@H](C(C)C)NC(=O)[C@@H]2CCCN2C(=O)[C@@H]2CCCN2C(=O)[C@H]([C@@H](C)O)NC(=O)[C@H](CC(=O)O)NC1=O", "notes": "Cyclo(1,7)Ac-CDTPPVC-NH2; ADT peptide designed from the bulge region of the cadherin EC1 domain; also called ADT cyclic 5; source: synthetic peptide (Fmoc solid-phase synthesis, HPLC purified, cyclized by air oxidation)"}, "B3": {"name": "ADTC7 (peptide)", "peptide": "Ac-CDTPPEC-NH2", "modifications": "disulfide 1-7", "SMILES": "CC(=O)N[C@H]1CSSC[C@@H](C(N)=O)NC(=O)[C@H](CCC(=O)O)NC(=O)[C@@H]2CCCN2C(=O)[C@@H]2CCCN2C(=O)[C@H]([C@@H](C)O)NC(=O)[C@H](CC(=O)O)NC1=O", "notes": "Cyclo(1,7)Ac-CDTPPEC-NH2; derivative of ADTC5 with Val6 replaced by Glu6; source: synthetic peptide (Fmoc solid-phase synthesis, HPLC purified, cyclized by air oxidation)"}}, "key": {"EC1 domain of E-cadherin": {"system": "EC1 domain of E-cadherin", "details": "cited from earlier work", "description": "The BBB paracellular porosity can be magnified by Ala-Asp-Thr (ADT) and His-Ala-Val (HAV) peptides that were derived from cadherin sequences to inhibit cadherin-cadherin interactions. The ADT and HAV peptides were designed from the amino acid sequences of the bulge and grove regions in the cadherin EC1 domain, respectively. As BBB modulators (BBBMs), both ADT and/or HAV peptides enhanced brain depositions of various sizes of molecules to the brain parenchyma such as IRdye 800CW, ^3H-daunomycin, adenanthin, or gadolinium-diethylenetriaminepentacetate (Gd-DTPA or gadopent ... || Figure 6. The proposed mechanisms of binding for Ala-Asp-Thr (ADT) and His-Ala-Val (HAV) peptides to extracellular-1 (EC1) domain of cadherin to inhibit cadherin-cadherin interactions. (A) A model to represent cadherin-to-cadherin interactions in the paracellular pathway at the adherens junction. First is the cis-interaction of EC1 and EC2 on two cadherin proteins that are protruding from one side of cell membranes. Second is the trans-interaction of EC1-EC1 from two cadherins that reside in two opposite membranes; (B) the EC1-EC1 interaction with domain swapping between the N-terminal Trp2 an ... || We hypothesized that HAV and ADT peptides prevent cadherin-cadherin interactions by binding to EC1 in the BBB adherens junctions (Figure 6C and D). Cadherin peptides disrupt the integrity of cell-cell adhesion in dynamics and reversible fashion in paracellular pathways of the BBB. Thus, the NMR and molecular docking experiments were carried out to determine the EC1 binding properties of ADT peptides."}, "BBB [1]": {"system": "BBB", "parameters": "method as in 3 sources, ref 49 = [49]; PMID 12754091; doi:10.1016/s0361-9230(03)00043-1; 49. Borlongan CV , Emerich DF . Facilitation of drug entry into the CNS via transient permeation of blood brain barrier: laboratory and preliminary clinical evidence from bradykinin receptor agonist, ||| ref 50 = [50]; PMID 22524793; doi:10.1021/mp3000937; 50. Zwanziger D , Hackel D , Staat C , Böcker A , Brack A , Beyermann M , A peptidomimetic tight junction modulator to improve regional analgesia . Mol Pharm . 2012; 9 : 1785 – 94 . 22524793 10.1021/ ||| ref 43-45 = [43]; PMID 25307218; doi:10.1016/bs.apha.2014.06.002; 43. Doolittle ND , Muldoon LL , Culp AY , Neuwelt EA . Delivery of chemotherapeutics across the blood-brain barrier: challenges and advances . Adv Pharmacol . 2014; 71 : 203 – 43 . 25307218 10.1016/b || [44]; 44. Smith QR . Quantitation of Blood-Brain Barrier Permeability . In: Neuwelt EA , editor. Implications of the Blood-Brain Barrier and Its Manipulation: Volume 1 Basic Science Aspects . Boston, MA : S || [45]; PMID 3930991; doi:10.1227/00006123-198509000-00004; 45. Neuwelt EA , Barnett PA , McCormick CI , Frenkel EP , Minna JD . Osmotic blood-brain barrier modification: monoclonal antibody, albumin, and methotrexate delivery to cerebrospinal fluid and brain", "details": "hypertonic mannitol solution; cited from earlier work"}, "[2]": {"system": "blood-brain barrier (BBB)", "details": "cited from earlier work", "description": "In addition, Gd-DTPA delivery to the brain was enhanced when co-administered with ADTC5 in living mice upon detection with magnetic resonance imaging (MRI). […] Different cadherin peptides produced different durations of the BBB opening for different sizes of del ..."}, "BBB [3]": {"system": "BBB", "details": "in vivo; cited from earlier work", "description": "As BBBMs, the in vivo activities of ADT and HAV peptides to modulate the BBB were transient and reversible. […] Different cadherin peptides produced different durations of the BBB opening for different sizes of del ..."}, "[4]": {"molecular_target": "15N-labeled extracellular-1 (EC1) domain of human E-cadherin (human, UniProt P12830 155-367, 15N-labeled)", "sequence (P12830 155-367)": "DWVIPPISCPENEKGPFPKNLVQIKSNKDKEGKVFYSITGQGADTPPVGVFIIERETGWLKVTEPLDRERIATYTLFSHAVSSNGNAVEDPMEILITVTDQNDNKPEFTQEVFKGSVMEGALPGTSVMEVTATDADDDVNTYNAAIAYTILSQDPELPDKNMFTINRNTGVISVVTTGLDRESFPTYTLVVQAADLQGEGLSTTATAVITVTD", "assay": "NMR titration; 1H-15N HSQC (600 MHz) of 15N-labeled EC1 titrated with peptide; 20.0 mM potassium phosphate, 5.0 mM DTT, pH 6.0, 6% D2O; chemical shift perturbation; Kd from the titration curve of a single residue (Ile53 or Leu21)", "details": "both partners purified"}}, "note": "“Also recorded” adds a separate entry of the source. Bridges are numbered along the chain shown (N, C = ends).", "data": [{"molecule": "Cyclo(1,6)Ac-CSHAVC-NH2 (disulfide) [cHAVc3]", "values": [{"measurement": "EC1 binding and effect on cis-cadherin interactions", "setting": "EC1 domain of E-cadherin", "value": "increased the porosity of the paracellular route through binding to the EC1 domain followed by disruption of the cis-cadherin interactions"}, {"measurement": "EC1 binding site location", "setting": "EC1 domain of E-cadherin", "value": "found at the opposite side of ADT cyclic 5 (ADTC5) binding site; also recorded: dock on the surface of EC1 that interacts with the EC2 surface from a neighboring cadherin protein; also recorded: binds to the opposite side of ADTC5-binding site"}]}, {"molecule": "OC[C@@H](O)[C@@H](O)[C@H](O)[C@H](O)CO", "note": "[mannitol]", "values": [{"measurement": "BBB paracellular porosity by osmotic disruption", "setting": "BBB [1]", "value": "increase paracellular porosity of the intercellular junctions"}]}, {"molecule": "Ac-SHAVSS-NH2 [HAV6, reference compound]", "values": [{"measurement": "delivery of mAb to brain", "setting": "[2]; 150 kDa mAb", "value": "could not deliver mAb when administered together"}, {"measurement": "duration of BBB opening for transport of Gd-DTPA", "setting": "[2]; Gd-DTPA", "value": "less than 45 min"}, {"measurement": "delivery of Galbumin to brain", "setting": "[2]; delay in the administration of HAV6 and Galbumin", "value": "could not deliver Galbumin when there was a delay in the administration of HAV6 and Galbumin"}, {"measurement": "inflammation and astrogliosis", "setting": "BBB [3]", "value": "did not induce inflammation and astrogliosis"}, {"measurement": "EC1 binding site location", "setting": "EC1 domain of E-cadherin", "value": "dock on the surface of EC1 that interacts with the EC2 surface from a neighboring cadherin protein"}]}, {"molecule": "B1", "values": [{"measurement": "Kd", "setting": "[4]", "value": 181, "unit": "µM"}]}, {"molecule": "B2", "values": [{"measurement": "Kd", "setting": "[4]", "value": 35, "unit": "µM"}]}, {"molecule": "B3", "values": [{"measurement": "Kd", "setting": "[4]", "value": 64, "unit": "µM"}]}]}
